Counter-ions that a name gives are not always drawn.
Key:
[1] = test system: locomotor activity of mice; test: Effects on locomotor activity, wheel cage method; type: in vivo, ddY-strain male mice
Experimental: (§1) In Tests 1 to 4 given below, ddY-strain male mice (body weight 20-25 g) were used, and the experiments were carried out in a semi-soundproof, constant-temperature room kept at a temperature of 23±1° C. and a humidity of 55±2%. The mice were allowed to take feed and water freely.
Test 1: Effects on locomotor activity
The effects of the test compound on the locomotor activities of the mice were examined by using wheel cages (made by Kishimoto Ika). […] The mice were used in groups each consisting of 8 mice. The test compound was intraperitoneally administered to the mice in the doses indicated, and immediately then, the mice were put into the cages. The locomotor activities (the number of revolutions) were measured for 90 minutes at 15 minute intervals, and compared with that of the control group.

[2] = test system: sleeping induced by pentobarbital; test: Effect of prolonging the time of sleeping induced by pentobarbital; type: in vivo, ddY-strain male mice; settings: pentobarbital sodium 50 mg/kg s.c.
Experimental: as §1
Test 3: Effect of prolonging the time of sleeping induced by pentobarbital
The effects of the test compounds on sleeping induced by pentobarbital were examined. The disappearance of righting reflex for 5 seconds or more was used as an index of sleeping. Mice were divided into 10-membered groups. Each of the test compounds was intraperitoneally administered to the mice in the doses indicated. Immediately then, pentobarbital sodium salt was subcutaneously injected into the mice in a dose of 50 mg/kg, and the sleeping time was compared with that of a group to which pentobarbital alone was injected (control).

[3] = test system: cycloheximide-induced amnesia model; test: Effects on CXM-induced amnesia (step-down retention test); type: in vivo, ddY-strain male mice; settings: for Escape learning latency (mean ± S.E.) / Step-down latency (mean ± S.E.): retention test 24 hours
Experimental: The test animals used were ddY-strain male mice (body weight 30-35 g). The experiment was carried out indoors at about 20° C., and the mice were allowed to take feed and water freely. 2. Effects on memorized behaviors
A device comprised of a floor grid surrounded on four sides by acrylic glass walls each having a lateral dimension of 21 cm and a wooden platform, 4×4×4 cm in size, fixed centrally to the floor grid was placed in a wooden semi-soundproof box having a size of 21×21×40 cm with a 15W electric bulb suspended from its ceiling.
The floor grid consisted of stainless steel rods, 3 mm in diameter, arranged at intervals of 8 mm. An intermittent electric shock (1 Hz, 0.5 sec., 60 V DC) was applied to the grid by an electric impulse apparatus and an isolator.
A mouse was placed in a predetermined direction on the platform. Immediately after the mouse stepped down onto the floor grid (when the mouse's four limbs left the platform), an electric shock was applied to the floor grid, and the intermittent application of the electric shock was continued until the mouse climbed up the platform to escape from the electric shock. The time which elapsed until the mouse stepped down from the platform (SDL, step down latency) and the time which elapsed until the mouse escaped to the platform from the electric shock (ELL, escape learning latency) were measured.
By the same procedure as in the training test, a mouse was placed on the platform, and its step down latency (SDL) was measured. The cut-off time was 300 seconds.
After the mouse stepped down, or the cut-off time elapsed, the mouse was placed on the floor grid at a corner of the device with its head directed in a direction opposite to the platform. An electric shock was applied to the mouse and its escape learning latency (ELL) was measured.
Mice divided into groups each consisting of not less than 20 mice were subjected to the training test, and immediately then subcutaneously injected with CXM (150 mg/kg). Twenty-four hours later, the mice was subjected to the retention test.
Immediately after administration of CXM or application of ECS, a 0.9% normal saline solution of each of the test compounds was intraperitoneally administered to the mice. Separately, a 5% gum arabic solution of CXM was administered to the mice in a control group.

[4] = in vivo; settings: mouse, in vivo, ip
Experimental: (§2) Calcium 4-(3,5-dihydroxy-3-methylpentylamide) butyrate was intraperitoneally administered in doses of 500 mg/kg and 1,000 mg/kg respectively to eight ddY-strain male mice (body weight 20 to 25 g).

[5] = test system: ddY-strain male mice; test: Toxicity test, intraperitoneal (LD50); settings: 500 mg/kg and 1,000 mg/kg i.p.; result in words
Experimental: as §2

[6] = 500 mg/kg i.p., CXM 150 mg/kg s.c.
[7] = 1000 mg/kg i.p., CXM 150 mg/kg s.c.

In the case of `CC(O)(CCO)CC(=O)NCCCC(=O)O` (stereo not shown) [MV-GABA-Ca salt, calcium 4-(3,5-dihydroxy-3-methylpentylamide) butyrate], the “Motor activity (total number of revolutions per mouse)” value ([1]; 250 mg/kg i.p., 15 minutes) is reported as 201 revolutions per mouse, the “Motor activity (total number of revolutions per mouse)” value ([1]; 250 mg/kg i.p., 30 minutes) is reported as 406 revolutions per mouse and the “Motor activity (total number of revolutions per mouse)” value ([1]; 250 mg/kg i.p., 45 minutes) is reported as 560 revolutions per mouse. The “Motor activity (total number of revolutions per mouse)” value ([1]; 250 mg/kg i.p., 60 minutes) was 727 revolutions per mouse, the “Motor activity (total number of revolutions per mouse)” value ([1]; 250 mg/kg i.p., 75 minutes) was 865 revolutions per mouse and the “Motor activity (total number of revolutions per mouse)” value ([1]; 250 mg/kg i.p., 90 minutes) was 916 revolutions per mouse. The “Motor activity (total number of revolutions per mouse)” value ([1]; 500 mg/kg i.p., 15 minutes) was 132 revolutions per mouse, the “Motor activity (total number of revolutions per mouse)” value ([1]; 500 mg/kg i.p., 30 minutes) was 289 revolutions per mouse and the “Motor activity (total number of revolutions per mouse)” value ([1]; 500 mg/kg i.p., 45 minutes) was 448 revolutions per mouse. For the same compound, the “Motor activity (total number of revolutions per mouse)” value ([1]; 500 mg/kg i.p., 60 minutes) was 615 revolutions per mouse, the “Motor activity (total number of revolutions per mouse)” value ([1]; 500 mg/kg i.p., 75 minutes) was 826 revolutions per mouse and the “Motor activity (total number of revolutions per mouse)” value ([1]; 500 mg/kg i.p., 90 minutes) was 1034 revolutions per mouse. The “Motor activity (total number of revolutions per mouse)” value ([1]; 1000 mg/kg i.p., 15 minutes) was 76 revolutions per mouse, the “Motor activity (total number of revolutions per mouse)” value ([1]; 1000 mg/kg i.p., 30 minutes) was 165 revolutions per mouse and the “Motor activity (total number of revolutions per mouse)” value ([1]; 1000 mg/kg i.p., 45 minutes) was 265 revolutions per mouse. The “Motor activity (total number of revolutions per mouse)” value ([1]; 1000 mg/kg i.p., 60 minutes) was 428 revolutions per mouse, the “Motor activity (total number of revolutions per mouse)” value ([1]; 1000 mg/kg i.p., 75 minutes) was 639 revolutions per mouse and the “Motor activity (total number of revolutions per mouse)” value ([1]; 1000 mg/kg i.p., 90 minutes) was 837 revolutions per mouse. For the same compound, the Sleeping time ([2]; 1000 mg/kg i.p.) was 62.7 ± 7.5 min, the Sleeping time ([2]; 2000 mg/kg i.p.) was 77.2 ± 5.2 min and the “shortening of SDL induced by CXM” value ([3]; 500 mg/kg and 1,000 mg/kg, result in words) was “significantly improved the shortening of SDL”. For the same compound, the “Escape learning latency (mean ± S.E.)” value [3, 6] was 10.5 ± 0.6 s, the “Step-down latency (mean ± S.E.)” value [3, 6] was 120.5 ± 10.6 s and the “Escape learning latency (mean ± S.E.)” value [3, 7] was 7.5 ± 0.6 s. For the same compound, the “Step-down latency (mean ± S.E.)” value [3, 7] was 175.2 ± 16.1 s, the “Escape learning latency (mean ± S.E.)” value ([3]; 1000 mg/kg i.p., without CXM) was 5.2 ± 0.6 s and the “Step-down latency (mean ± S.E.)” value ([3]; 1000 mg/kg i.p., without CXM) was 260.5 ± 14.0 s. For the same compound, the “prolongation of ELL induced by CXM” value ([3]; 1,000 mg/kg, result in words) was “significantly improved the prolongation of ELL”, the memory activating action ([3]; without CXM, vs control group, result in words) was “did not show memory activating action” and the LD50 [4] was over 2000 mg/kg. For the same compound, the death [5] was “no case of death”.

Source: patent US4703061A, “Gamma-aminobutyric acid derivatives, process for production thereof, and use thereof as medicaments” (priority 1984, dated 1987)
